Measured values: patent publication US10280159B2 (AbbVie Deutschland GmbH & Co. KG, priority 2015, dated 2019)

Columns and labels:
Type in all cases: cell-based
human S1PR5 = target: T1, human S1PR5 (Homo sapiens, UniProt Q9H228); assay: Intracellular Ca2+ release (FLIPR) agonist potency, S1P5; conditions: recombinant CHO-K1 cells expressing human S1PR5, aequorin, Gq/i5; Calcium 5 FLIPR; read-out: S1P5 EC50 range
T1 construct: host or cells: CHO-K1
Summary of the method: (§1)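 Agonist potency from intracellular Ca²⁺ release measured by FLIPR, with EC50 fitted after normalization to phospho-fingolimod curves. Recombinant CHO-K1 lines co-expressing the respective human S1P receptor, aequorin and Gq/i5.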

human S1PR1 = target: T2, human S1PR1 (Homo sapiens, UniProt P21453); assay: Intracellular Ca2+ release (FLIPR) agonist potency, S1P1; conditions: recombinant CHO-K1 cells expressing human S1PR1, aequorin, Gq/i5; Calcium 5 FLIPR; read-out: S1P1 EC50
T2 construct: host or cells: CHO-K1
T2 sequence (P21453 whole entry): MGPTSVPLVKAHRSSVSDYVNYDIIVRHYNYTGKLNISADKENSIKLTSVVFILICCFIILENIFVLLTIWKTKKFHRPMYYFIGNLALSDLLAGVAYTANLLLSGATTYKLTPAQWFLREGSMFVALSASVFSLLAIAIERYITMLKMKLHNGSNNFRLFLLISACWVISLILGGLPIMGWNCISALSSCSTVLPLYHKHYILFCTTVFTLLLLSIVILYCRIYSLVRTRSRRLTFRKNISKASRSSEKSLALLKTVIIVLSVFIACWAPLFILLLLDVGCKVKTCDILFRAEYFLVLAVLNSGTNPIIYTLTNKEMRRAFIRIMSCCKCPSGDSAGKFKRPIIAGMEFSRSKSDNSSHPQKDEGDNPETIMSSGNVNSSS
Summary of the method: as §1

human S1PR4 = target: T3, human S1PR4 (Homo sapiens, UniProt O95977); assay: Intracellular Ca2+ release (FLIPR) agonist potency, S1P4; conditions: recombinant CHO-K1 cells expressing human S1PR4, aequorin, Gq/i5; Calcium 5 FLIPR; read-out: S1P4 EC50
T3 construct: host or cells: CHO-K1
T3 sequence (O95977 1-384): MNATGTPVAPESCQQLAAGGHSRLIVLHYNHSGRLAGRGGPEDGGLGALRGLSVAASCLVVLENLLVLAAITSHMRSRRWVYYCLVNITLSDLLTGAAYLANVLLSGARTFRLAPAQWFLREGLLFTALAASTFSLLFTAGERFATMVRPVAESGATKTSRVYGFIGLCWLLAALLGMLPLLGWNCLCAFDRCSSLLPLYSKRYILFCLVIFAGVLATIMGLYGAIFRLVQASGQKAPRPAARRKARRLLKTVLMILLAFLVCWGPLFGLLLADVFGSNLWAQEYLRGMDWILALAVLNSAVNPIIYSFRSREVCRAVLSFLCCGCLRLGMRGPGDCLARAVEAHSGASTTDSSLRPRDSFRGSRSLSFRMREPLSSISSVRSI
Summary of the method: as §1

T1 sequence (Q9H228 whole entry): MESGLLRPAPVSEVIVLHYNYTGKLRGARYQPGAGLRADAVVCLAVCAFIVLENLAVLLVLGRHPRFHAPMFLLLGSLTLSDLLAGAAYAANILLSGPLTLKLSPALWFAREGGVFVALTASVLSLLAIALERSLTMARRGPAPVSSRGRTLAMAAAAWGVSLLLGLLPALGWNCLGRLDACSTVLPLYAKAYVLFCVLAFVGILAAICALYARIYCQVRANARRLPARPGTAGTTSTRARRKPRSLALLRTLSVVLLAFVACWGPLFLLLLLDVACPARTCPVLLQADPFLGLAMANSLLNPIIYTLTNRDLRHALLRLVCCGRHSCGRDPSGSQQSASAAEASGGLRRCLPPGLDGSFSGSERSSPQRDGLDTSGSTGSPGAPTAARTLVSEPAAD

Row | SMILES | EC50 (human S1PR5) [nM] | EC50 (human S1PR1) [nM] | EC50 (human S1PR4) [nM]
1 | CCc1cccc(Cl)c1COc1ccc2c(c1)OCC(NC1(CC(=O)O)CCC1)C2 (stereo not drawn) [Compound 116, 2-(1-((7-((2-chloro-6-ethylbenzyl)oxy)chroman-3-yl)amino)cyclobutyl)acetic acid] | < 10 | > 1000 | < 1000
2 | CSc1ccc(COc2ccc3c(c2)CCC(OCC(=O)O)C3)cc1 (stereo not drawn) [Compound 201, 2-[6-[(4-methylsulfanylphenyl)methoxy]tetralin-2-yl]oxyacetic acid] | 1000 to 10000 | > 1000 | > 1000
3 | CCc1cccc(Cl)c1COc1ccc2c(c1)CCC(OCC(=O)O)C2 (stereo not drawn) [Compound 142] | < 10 | > 1000 | > 1000
4 | O=C(O)C1CN(C2COc3cc(OCc4ccc(C(F)(F)F)cc4)ccc3C2)C1 (stereo not drawn) [Compound 57, 1-(7-((4-(trifluoromethyl)benzyl)oxy)chroman-3-yl)azetidine-3-carboxylic acid] | 1000 to 10000 | > 1000 | > 1000
5 | O=C(O)COC1CCc2cc(OCc3c(Cl)cccc3C3CC3)ccc2C1 (stereo not drawn) [Compound 143, 2-((6-((2-chloro-6-cyclopropylbenzyl)oxy)-1,2,3,4-tetrahydronaphthalen-2-yl)oxy)acetic acid] | < 10 | > 1000 | > 1000
6 | Cc1ccc(Cl)c(COc2ccc3c(c2)CCC(OCC(=O)O)C3)c1F (stereo not drawn) [Compound 150, 2-[6-[(6-chloro-2-fluoro-3-methyl-phenyl)methoxy]tetralin-2-yl]oxyacetic acid] | 1000 to 10000 | > 1000 | > 1000
7 | CCc1cccc(F)c1COc1ccc2c(c1)OCC(NC1(CC(=O)O)CCC1)C2 (stereo not drawn) [Compound 118, 2-(1-((7-((2-ethyl-6-fluorobenzyl)oxy)chroman-3-yl)amino)cyclobutyl)acetic acid] | < 10 | > 1000 | < 1000
8 | CCc1cccc(F)c1COc1ccc2c(c1)OCC(NCC(=O)O)C2 (stereo not drawn) [Compound 126, (7-((2-ethyl-6-fluorobenzyl)oxy)chroman-3-yl)glycine] | < 10 | > 1000 | < 1000
9 | O=C(O)C1CN(C2COc3cc(OCCOc4cccc(F)c4)ccc3C2)C1 (stereo not drawn) [Compound 97, 1-[7-[2-(3-fluorophenoxy)ethoxy]chroman-3-yl]azetidine-3-carboxylic acid] | 1000 to 10000 | > 1000 | > 1000
10 | CC(C)(C)c1ccc(COc2ccc3c(c2)CCC(OCCC(=O)O)C3)cc1 (stereo not drawn) [Compound 192, 3-[6-[(4-tert-butylphenyl)methoxy]tetralin-2-yl]oxypropanoic acid] | 1000 to 10000 | > 1000 | > 1000
11 | CCc1cccc(Cl)c1COc1ccc2c(c1)OCC(N1CCC(CC(=O)O)C1)C2 (stereo not drawn) [Compound 125, 2-(1-(7-((2-chloro-6-ethylbenzyl)oxy)chroman-3-yl)pyrrolidin-3-yl)acetic acid] | < 10 | > 1000 | < 1000
12 | O=C(O)C1CN(C2COc3cc(OCc4c(Cl)cccc4Cl)c(Br)cc3C2)C1 (stereo not drawn) [Compound 221, 1-[6-bromo-7-[(2,6-dichlorophenyl)methoxy]chroman-3-yl]azetidine-3-carboxylic acid] | 10 to 100 | > 1000 | > 1000
13 | Cc1c(COc2ccc3c(c2)CCC(OCC(=O)O)C3)cccc1C(F)(F)F (stereo not drawn) [Compound 200, 2-[6-[[2-methyl-3-(trifluoromethyl)phenyl]methoxy]tetralin-2-yl]oxyacetic acid] | 1000 to 10000 | > 1000 | > 1000
14 | Cc1cccc(COc2ccc3c(c2)OCC(N2CC(C(=O)O)C2)C3)c1 (stereo not drawn) [Compound 58, 1-(7-((3-methylbenzyl)oxy)chroman-3-yl)azetidine-3-carboxylic acid] | 1000 to 10000 | > 1000 | > 1000
15 | CN(CC(=O)O)C1COc2cc(OCc3ccc(OCc4ccc(Cl)cc4)cc3)ccc2C1 (stereo not drawn) [Compound 135, N-(7-((4-((4-chlorobenzyl)oxy)benzyl)oxy)chroman-3-yl)-N-methylglycine] | 10 to 100 | > 1000 | > 1000
